# According to patent US20230014445A1, “ALLOSTERIC CHROMENONE INHIBITORS OF PHOSPHOINOSITIDE 3-KINASE (PI3K) FOR THE TREATMENT OF DISEASE” (Petra Pharma Corporation, priority 2021, published 2023):
# Columns and labels:
# [1] = target: T1, human full length PIK3KA Wild-type (p110α/p85α complex) (Homo sapiens, UniProt P42336); experiment: PI3K-Alpha Kinase (PIK3CA) biochemical activity, wild-type (ADP-Glo); conditions: 20 uM ATP
# T1 construct: Recombinant, catalytically active human full length PIK3KA Wild-type and H1047R mutant were purchased; 6xHis (N); purchased EMD Millipore Sigma 14-602M
# Description: (§1) PI3K-Alpha Kinase (PIK3CA) Activity, Wild-Type and H1047R Mutant and Determining IC50 Values for Inhibitors
# (§2) Recombinant, catalytically active human full length PIK3KA Wild-type and H1047R mutant were purchased as 1:1 complex of N-terminal 6×his tagged p110α (catalytic) and untagged p85α, (regulatory subunit) from EMD Millipore Sigma (cat. no. 14-602M and 14-792M, respectively). PIP2diC8 (Avanti Polar Lipids Inc., cat. no. 850185) or Soy PI (Avanti Polar Lipids Inc., cat. No. 840044P) was used as lipid substrate. PIP2diC8 or PI lyophilized powder was dissolved in milliQ water to a concentration of 1 mM just before use. 10 mM stock compounds in DMSO were serially diluted 1:3 to generate a 10-point curve and plated using an acoustic liquid handler system (Echo 550 series instrument, Labcyte). A 10× intermediate compound plate (200 uM starting compound concentration and 10% DMSO) was prepared before starting the reaction. A typical reaction mixture (50 uL) comprised 40 mM HEPES buffer, pH 7.4, 25 mM MgCl2, 0.01% v/v triton-X-100, 1% v/v DMSO, 20 mM NaCl, 1-5 nM WT or H1047R PI3K protein, 20 uM ATP, and 50 uM PIP2diC8 or Soy PI. 1% DMSO buffer alone without test compound was employed as MAX control (full activity in the absence of any inhibitor), and no enzyme control was used to determine the level of background Adenosine 5′-diphosphate (ADP) (MIN control). First, Wild-type (WT) and H1047R mutant protein in kinase buffer with all components except ATP were incubated with or without compound at 27° C. for 1 h. After the pre-incubation, the reaction was initiated by the addition of […] (20 uM final concentration). The reaction was allowed to proceed until about 10% conversion of ATP (2 uM ADP) at 27° C. After that time, 5 uL of reaction was mixed with 5 uL of ADP-Kinase Glo Reagent (ADP-Glo Kinase assay kit, Promega cat. no. V9102) supplemented with MgCl2 10 mM to stop the reaction and deplete the remaining ATP for 40 min at room temperature. Then, 10 uL of Kinase Detection Reagent (ADP-Glo Kinase assay kit, Promega cat. no. V9102) was added to simultaneously convert ADP to ATP and allow the newly synthesized ATP to be measured using a luciferase/luciferin reaction. After 30 min at room temperature the light generated was measured using a luminometer (EnVision plate reader, Perkin Elmer). Process data through Genedata-Screener tool. Relative IC50 values are determined using luminescence units by calculating percent inhibition with respect to on-plate “MIN” and “MAX” controls. Data was analyzed using a 4-parameter nonlinear logistic equation (four-parameter logistic concentration-response curve):
# (§3) Y=bot+[(top−bot)/1+(x/IC50)slope]
# (§4) where Y=% inhibition, X=concentration yielding y % inhibition, Bottom=minimum value of y attained by curve, Top=maximum value of y attained by curve and Slope=steepness of curve at IC50.
# (§5) % Inh=[(median Max−x/median Max−median Min)]·100
# (§6) IC50: concentration of compound that reduces a given response (ligand binding, enzyme response) by 50%. IC50 relative: concentration giving half the compound's maximum response.
# (§7) For IC50 values shown in Table A, “A” means IC50<0.5 μM; “B” means IC50 ranging between 0.5 μM and 1.0 μM; “C” means IC50 ranging between 1 μM and 5 μM; “D” means IC50 ranging between 5 μM and 10 μM; “E” means IC50>10 μM.
# [2] = target: T2, human full length PIK3KA H1047R mutant (p110α/p85α complex) (Homo sapiens, UniProt P42336, H1047R); experiment: PI3K-Alpha Kinase (PIK3CA) biochemical activity, H1047R mutant (ADP-Glo); conditions: 20 uM ATP
# T2 construct: Recombinant, catalytically active human full length PIK3KA Wild-type and H1047R mutant were purchased; 6xHis (N); purchased EMD Millipore Sigma 14-792M
# Description: as §1, §2, §3, §4, §5, §6, §7
# T2 sequence (P42336 whole entry H1047R): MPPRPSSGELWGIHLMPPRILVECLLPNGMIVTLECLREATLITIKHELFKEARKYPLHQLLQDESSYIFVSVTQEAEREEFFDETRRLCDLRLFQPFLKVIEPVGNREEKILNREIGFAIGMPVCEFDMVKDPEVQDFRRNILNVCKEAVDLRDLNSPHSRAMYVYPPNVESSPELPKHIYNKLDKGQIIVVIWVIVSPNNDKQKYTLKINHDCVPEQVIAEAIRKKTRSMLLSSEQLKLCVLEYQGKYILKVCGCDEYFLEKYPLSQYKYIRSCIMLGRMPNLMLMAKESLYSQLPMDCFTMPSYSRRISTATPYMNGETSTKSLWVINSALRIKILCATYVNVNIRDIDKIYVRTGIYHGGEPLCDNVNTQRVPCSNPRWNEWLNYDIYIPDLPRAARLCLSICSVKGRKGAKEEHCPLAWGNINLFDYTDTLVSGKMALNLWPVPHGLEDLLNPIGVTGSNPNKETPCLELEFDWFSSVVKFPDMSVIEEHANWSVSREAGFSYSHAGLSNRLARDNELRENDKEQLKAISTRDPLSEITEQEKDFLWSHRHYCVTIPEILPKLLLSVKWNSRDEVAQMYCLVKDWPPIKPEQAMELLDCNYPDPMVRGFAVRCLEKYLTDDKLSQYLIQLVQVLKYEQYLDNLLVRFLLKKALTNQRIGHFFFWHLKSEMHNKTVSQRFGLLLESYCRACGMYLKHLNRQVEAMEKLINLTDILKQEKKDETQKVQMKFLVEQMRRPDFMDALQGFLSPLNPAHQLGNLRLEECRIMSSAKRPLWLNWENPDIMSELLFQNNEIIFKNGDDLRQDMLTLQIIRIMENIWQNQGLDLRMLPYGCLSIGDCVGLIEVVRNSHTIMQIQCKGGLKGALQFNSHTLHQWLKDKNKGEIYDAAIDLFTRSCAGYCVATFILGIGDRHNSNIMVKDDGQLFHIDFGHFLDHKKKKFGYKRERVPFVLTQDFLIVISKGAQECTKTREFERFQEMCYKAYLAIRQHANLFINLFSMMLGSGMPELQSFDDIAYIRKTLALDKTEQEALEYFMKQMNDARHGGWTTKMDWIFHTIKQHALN
# T2 sequence (P27986 whole entry partner): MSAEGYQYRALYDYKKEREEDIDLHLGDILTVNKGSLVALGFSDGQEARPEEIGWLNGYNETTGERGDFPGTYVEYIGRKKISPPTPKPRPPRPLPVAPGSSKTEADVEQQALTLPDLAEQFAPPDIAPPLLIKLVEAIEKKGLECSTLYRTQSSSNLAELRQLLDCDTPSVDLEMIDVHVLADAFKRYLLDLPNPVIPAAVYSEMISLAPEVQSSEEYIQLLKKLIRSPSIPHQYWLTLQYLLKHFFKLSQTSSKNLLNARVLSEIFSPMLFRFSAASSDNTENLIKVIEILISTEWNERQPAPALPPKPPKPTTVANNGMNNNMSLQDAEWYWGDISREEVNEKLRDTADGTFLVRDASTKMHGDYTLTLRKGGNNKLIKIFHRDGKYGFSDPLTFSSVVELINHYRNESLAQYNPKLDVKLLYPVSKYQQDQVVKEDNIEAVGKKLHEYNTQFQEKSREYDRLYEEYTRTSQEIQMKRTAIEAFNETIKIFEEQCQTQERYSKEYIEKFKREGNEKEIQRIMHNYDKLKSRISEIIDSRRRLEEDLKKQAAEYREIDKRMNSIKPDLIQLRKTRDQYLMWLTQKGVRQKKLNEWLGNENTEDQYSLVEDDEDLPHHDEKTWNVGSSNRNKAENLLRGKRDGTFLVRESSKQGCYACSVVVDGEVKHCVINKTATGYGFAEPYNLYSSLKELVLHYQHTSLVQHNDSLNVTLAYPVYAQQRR
Compound,IC50 ([1]; Soy PI lipid substrate) [µM],IC50 ([2]; Soy PI lipid substrate) [nM],IC50 ([1]; PIP2diC8 lipid substrate) [µM],IC50 ([2]; PIP2diC8 lipid substrate) [nM]
"COc1ccc(-n2cc(-c3cc(=O)c4cc(C)cc(C(C)Nc5ccccc5C(=O)O)c4o3)cn2)cc1F (single isomer, unassigned) [Example 92, 2-[1-[2-[1-(3-Fluoro-4-methoxy-phenyl)pyrazol-4-yl]-6-methyl-4-oxo-chromen-8-yl]ethylamino]benzoic acid, Isomer 2,2,2,2-trifluoroacetic acid]",5 to 10,< 500,–,–
"Cc1cc(C(C)Nc2ccccc2C(=O)O)c2oc(-c3cnn(-c4ccc(OC(F)(F)F)cc4)c3)cc(=O)c2c1 (single isomer, unassigned) [Example 93, 2-[1-[6-Methyl-4-oxo-2-[1-[4-(trifluoromethoxy)phenyl]pyrazol-4-yl]chromen-8-yl]ethylamino]benzoic acid, Isomer 2,2,2,2-trifluoroacetic acid]",> 10,500 to 1000,–,–
"COc1cc(-n2cc(-c3cc(=O)c4cc(C)cc(C(C)Nc5ccccc5C(=O)O)c4o3)cn2)ccc1C#N (single isomer, unassigned) [Example 94, 2-[1-[2-[1-(4-Cyano-3-methoxy-phenyl)pyrazol-4-yl]-6-methyl-4-oxo-chromen-8-yl]ethylamino]benzoic acid, Isomer 2,2,2,2-trifluoroacetic acid]",1 to 5,< 500,–,–
"Cc1cc(C(C)Nc2ccc(F)c(F)c2C(=O)O)c2oc(-c3cnn(-c4ccc(C#N)cc4)c3)cc(=O)c2c1 (single isomer, unassigned) [Example 95, 2,3-Difluoro-6-[1-[2-[1-(4-cyanophenyl)pyrazol-4-yl]-6-methyl-4-oxo-chromen-8-yl]ethylamino]benzoic acid, Isomer 1,2,2,2-trifluoroacetic acid]",> 10,1000 to 5000,–,–
"Cc1cc(C(C)Nc2ccccc2C(=O)O)c2oc(-c3cnc(C#CC(C)(C)O)nc3)cc(=O)c2c1 (single isomer, unassigned) [Example 102, 2-[1-[2-[2-(3-Hydroxy-3-methyl-but-1-ynyl)pyrimidin-5-yl]-6-methyl-4-oxo-chromen-8-yl]ethylamino]benzoic acid, Isomer 2,2,2,2-trifluoroacetic acid]",5 to 10,500 to 1000,–,–
"Cc1cc(C(C)Nc2ccccc2C(=O)O)c2oc(-c3cn(-c4ccc(C#N)cc4)cn3)cc(=O)c2c1 (single isomer, unassigned) [Example 103, 2-[1-[2-[1-(4-Cyanophenyl)imidazol-4-yl]-6-methyl-4-oxo-chromen-8-yl]ethylamino]benzoic acid, Isomer 2,2,2,2-trifluoroacetic acid]",5 to 10,< 500,–,–
"Cc1cc(C(C)Nc2ccccc2C(=O)O)c2oc(-c3cnn(-c4ccc(C#N)cc4F)c3)cc(=O)c2c1 (single isomer, unassigned) [Example 104, 2-[1-[2-[1-(4-Cyano-2-fluoro-phenyl)pyrazol-4-yl]-6-methyl-4-oxo-chromen-8-yl]ethylamino]benzoic acid, Isomer 2,2,2,2-trifluoroacetic acid]",> 10,500 to 1000,–,–
"COc1ncc(-n2cc(-c3cc(=O)c4cc(C)cc(C(C)Nc5ccccc5C(=O)O)c4o3)cn2)cn1 (single isomer, unassigned) [Example 105, 2-[1-[2-[1-(2-Methoxypyrimidin-5-yl)pyrazol-4-yl]-6-methyl-4-oxo-chromen-8-yl]ethylamino]benzoic acid, Isomer 2,2,2,2-trifluoroacetic acid]",> 10,500 to 1000,–,–
"Cc1cc(C(C)Nc2ccccc2C(=O)O)c2oc(-c3cnn(-c4ccc(Cl)cc4)c3)cc(=O)c2c1 (single isomer, unassigned) [Example 106, 2-[1-2-[1-(4-Chiorophenyl)pyrazol-4-yl]-6-methyl-4-oxo-chromen-8-yl]ethylamino]benzoic acid, Isomer 2,2,2,2-trifluoroacetic acid]",1 to 5,< 500,–,–
"Cc1cc(C(C)Nc2ccccc2C(=O)O)c2oc(-c3cnn(-c4ccccc4C#N)c3)cc(=O)c2c1 (single isomer, unassigned) [Example 107]",> 10,< 500,–,–
"Cc1cc(C(C)Nc2ccccc2C(=O)O)c2oc(-c3cnn(-c4ccccn4)c3)cc(=O)c2c1 (single isomer, unassigned) [Example 108, 2-[1-[6-Methyl-4-oxo-2-[1-(2-pyridyl)pyrazol-4-yl]chromen-8-yl]ethylamino]benzoic acid, Isomer 2,2,2,2-trifluoroacetic acid]",1 to 5,500 to 1000,–,–
"Cc1cc(C(C)Nc2ccccc2C(=O)O)c2oc(-c3cn(-c4ccc(C#N)cc4)nc3C)cc(=O)c2c1 (single isomer, unassigned) [Example 109, 2-[1-[2-[1-(4-Cyanophenyl)-3-methyl-pyrazol-4-yl]-6-methyl-4-oxo-chromen-8-yl]ethylamino]benzoic acid, Isomer 2,2,2,2-trifluoroacetic acid]",5 to 10,500 to 1000,–,–
"Cc1cc(C(C)Nc2ccccc2C(=O)O)c2oc(-c3cnccn3)cc(=O)c2c1 (single isomer, unassigned; isomer 1) [Example 15, 2-[1-(6-Methyl-4-oxo-2-pyrazin-2-yl-chromen-8-yl)ethylamino]benzoic acid, Isomer 1]",–,–,1 to 5,< 500
"Cc1cc(C(C)Nc2ccccc2C(=O)O)c2oc(-c3ccccn3)cc(=O)c2c1 (single isomer, unassigned; isomer 1) [Example 17, 2-[1-[6-Methyl-4-oxo-2-(2-pyridyl)chromen-8-yl]ethylamino]benzoic acid, Isomer 1]",1 to 5,< 500,–,–
"Cc1cc(C(C)Nc2ccc(Cl)nc2C(=O)O)c2oc(-c3ccccn3)cc(=O)c2c1 (single isomer, unassigned; isomer 1) [Example 27, 6-Chloro-3-[1-[6-methyl-4-oxo-2-(2-pyridyl)chromen-8-yl]ethylamino]pyridine-2-carboxylic acid, Isomer 1]",1 to 5,< 500,–,–
"Cc1cc(C(C)Nc2ccc(Cl)nc2C(=O)O)c2oc(-c3cnccn3)cc(=O)c2c1 (single isomer, unassigned; isomer 1) [Example 28, 6-Chloro-3-[1-(6-methyl-4-oxo-2-pyrazin-2-yl-chromen-8-yl)ethylamino]pyridine-2-carboxylic acid, Isomer 1]",1 to 5,< 500,–,–
"Cc1cc(C(C)Nc2ccccc2C(=O)O)c2oc(-c3cnc(C)nc3)cc(=O)c2c1 (single isomer, unassigned; isomer 1) [Example 32, 2-[1-[6-Methyl-2-(2-methylpyrimidin-5-yl)-4-oxo-chromen-8-yl]ethylamino]benzoic acid, Isomer 1]",–,–,5 to 10,< 500
"Cc1cc(C(C)Nc2ccccc2C(=O)O)c2oc(-c3ncccn3)c(C)c(=O)c2c1 (single isomer, unassigned; isomer 1) [Example 34, 2-[1-(3,6-Dimethyl-4-oxo-2-pyrimidin-2-yl-chromen-8-yl)ethylamino]benzoic acid, Isomer 1]",1 to 5,< 500,–,–
"CC(Nc1ccc(Cl)nc1C(=O)O)c1cc(C(F)(F)F)cc2c(=O)cc(-c3ccccn3)oc12 (single isomer, unassigned; isomer 1) [Example 62, 6-Chloro-3-[1-[4-oxo-2-(2-pyridyl)-6-(trifluoromethyl)chromen-8-yl]ethylamino]pyridine-2-carboxylic acid, Isomer 1]",5 to 10,< 500,–,–
